Measurements: US6762186B2, “Substituted imidazoles as dual histamine H1 and H3 agonists or antagonists” (Schering Corporation, priority 2000, dated 2004)

Columns and labels:
H3 receptors = target: T1, H3 receptors (Cavia porcellus, UniProt Q9JI35); assay: H3-Receptor Binding Assay ([3H]R-α-methyl histamine or [3H]Nα-methyl histamine, guinea pig brain membranes); details: for Ki: HCl salt of the indicated compounds; for inhibition at 2 µg/mL: final concentration 2 μg/ml, HCl salt
T1 construct: The source of the H3 receptors in this experiment was guinea pig brain; from tissue; host or cells: guinea pig brain membranes
Experimental: General Procedure for H3-Receptor Binding Assay
The source of the H3 receptors in this experiment was guinea pig brain. The animals weighed 400-600 g. The brain tissue was homogenized with a solution of 50 mM Tris, pH 7.5. The final concentration of tissue in the homogenization buffer was 10% w/v. The homogenates were centrifuged at 1,000×g for 10 min. in order to remove clumps of tissue and debris. The resulting supernatants were then centrifuged at 50,000×g for 20 min. in order to sediment the membranes, which were next washed three times in homogenization buffer (50,000×g for 20 min. each). The membranes were frozen and stored at −70° C. until needed.
All compounds to be tested were dissolved in DMSO and then diluted into the binding buffer (50 mM Tris, pH 7.5) such that the final concentration was 2 μg/ml with 0.1% DMSO. Membranes were then added (400 μg of protein) to the reaction tubes. The reaction was started by the addition of 3 nM [^3H]R-α-methyl histamine (8.8 Ci/mmol) or 3 nM [^3H]N^α-methyl histamine (80 Ci/mmol) and continued under incubation at 30° C. for 30 min. Bound ligand was separated from unbound ligand by filtration, and the amount of radioactive ligand bound to the membranes was quantitated by liquid scintillation spectrometry. All incubations were performed in duplicate and the standard error was always less than 10%. Compounds that inhibited more than 70% of the specific binding of radioactive ligand to the receptor were serially diluted to determine a Ki (nM). The results are given in Table 1 for the HCl salt of the indicated compounds.

histamine H1 receptor = target: T2, histamine H1 receptor (Rattus norvegicus, UniProt P31390); assay: H1-Receptor Binding Assay ([3H]pyrilamine, rat brain membranes); details: for Ki: Cheng-Prusoff from IC50, HCl salt; for inhibition at 1 µg/mL: HCl salt
T2 construct: The tissue source was male Sprague-Dawley rat brain; tissue Rockland Corporation, Gilbertsville, Pa; host or cells: male Sprague-Dawley rat brain membranes
Source text: General Procedure for H1-Receptor Binding Assay
The procedure used was based on that disclosed in V. T. Tran et al, “Histamine H1 receptors identified in mammalian brain membranes with [H-3]mepyramine”, Proc. Natl. Acad. Sci. U.S.A. 75 (1978) 6290-6294.
I. Tissue preparation protocol for histamine H1 receptor binding assay:
1. The tissue source was male Sprague-Dawley rat brain. These were purchased stripped and frozen (available from Rockland Corporation, Gilbertsville, Pa.). The buffer used was ice-cold 50 mM Tris-HCl, pH 7.5. (The pH was determined at 25° C.)
2. The brains were spread out on plastic wrap on the benchtop and allowed to thaw for 10-15 min. After this, everything was kept ice-cold.
3. Two brains were put in each 50 ml round bottom centrifuge tube and 25 ml of buffer was added. Then they were broken up with a Polytron (from Brinkmann Instruments, Westbury, N.Y.) equipped with a PT-10 tip at setting 6 for 30 sec.
4. The volume in the tube was brought up to 45 ml and mixed and the particulate material was centrifuged at 1000×g (3000 rpm, SS-34 rotor) for 10 min to remove nuclei and unbroken cells.
5. Pellets were discarded and the supernatants were centrifuged 10 min at 50,000×g (20,000 rpm, SS-34 rotor).
6. The high-speed pellets were resuspended in a volume of Tris buffer equal to the original ([…]), the contents of all tubes were pooled, and a sample was taken for BCA protein assay. The material was aliquotted, 45 ml per round-bottom tube, and the resuspension was recentrifuged. The yield of protein was approximately 20 mg/brain, so there was about 40 mg of protein per tube.
7. Pellets were frozen at −80° C.
II. H1 Histamine receptor binding assay:
1. The compounds for assay were independently solubilized at 1 mg/ml DMSO by vortexing, or if necessary by sonication. The first dilution, 100-fold, was made in 50 mM Tris-HCl, pH 7.5, at room temperature. The three or four subsequent ten-fold serial dilutions were made in 1% DMSO/50 mM Tris-HCl, pH 7.5. Drug solutions and assay plates were kept at room temperature during the course of the assay set up.
2. Test compounds were assayed at four or five concentrations: 1, 0.1, 0.01, 0.001, and 0.0001 μg/ml. Twenty μl of drug solution was pipeted into each of three wells.
3. [^3H]Pyrilamine was diluted approximately 2000-fold with ice-cold […] Tris-HCl, pH 7.5 (to a working concentration of 20-25 nM), and put on ice.
4. A frozen tissue pellet was thawed in a 25° C. water bath, resuspended in 50 mM Tris-HCl, pH 7.5, at 1.7-2 mg/ml by brief break-up on the Polytron, and put on ice.
5. Twenty μl of diluted [^3H]pyrilamine was added to each well.
6. One hundred fifty μl of tissue suspension was added to each well.
7. The top of the plate was covered and it was placed in a 25° C. shaking water bath (about 60 oscillations/min) for 30 min.
8. Samples were filtered on a Tomtec Mach 2 harvester (available from Tomtec Corporation, Orange, Conn.) through a GF/B filter mat (from Wallac, Inc., Gaithersburg, Md.) presoaked in 0.3% polyethylenimine. Each sample was thrice washed with ice-cold 50 mM Tris-HCl, pH 7.5 dried 20 sec on the Tomtec, and dried 3-4 min in a microwave oven on a paper towel. The filter was impregnated with MELTILEX brand wax scintillant (from Wallac Corporation) and counted on a Betaplate scintillation counter (from Wallac Corporation).
9. Specific binding was determined as the difference between total and nonspecific binding. The percent inhibition in the presence of inhibitor or standard was determined using the formula:
[1-(sample binding-nonspecific binding)/specific binding]×100
For compounds that inhibit more than 50% at 1 μg/ml, an IC50 value was interpolated from proximate concentrations. […]

T2 sequence (P31390 whole entry): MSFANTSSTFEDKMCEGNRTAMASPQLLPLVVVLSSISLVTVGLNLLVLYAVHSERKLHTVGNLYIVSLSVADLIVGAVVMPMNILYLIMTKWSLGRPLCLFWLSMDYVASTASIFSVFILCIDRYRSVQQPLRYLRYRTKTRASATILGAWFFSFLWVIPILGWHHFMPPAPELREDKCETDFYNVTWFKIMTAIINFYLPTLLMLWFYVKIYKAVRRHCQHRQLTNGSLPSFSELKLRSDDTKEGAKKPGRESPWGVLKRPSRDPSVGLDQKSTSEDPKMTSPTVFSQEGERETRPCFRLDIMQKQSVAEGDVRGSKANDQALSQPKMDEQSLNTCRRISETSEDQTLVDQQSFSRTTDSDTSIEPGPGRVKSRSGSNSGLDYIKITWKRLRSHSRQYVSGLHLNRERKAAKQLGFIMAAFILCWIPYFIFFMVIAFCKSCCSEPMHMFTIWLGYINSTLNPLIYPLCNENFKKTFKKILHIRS
T1 sequence (Q9JI35 whole entry): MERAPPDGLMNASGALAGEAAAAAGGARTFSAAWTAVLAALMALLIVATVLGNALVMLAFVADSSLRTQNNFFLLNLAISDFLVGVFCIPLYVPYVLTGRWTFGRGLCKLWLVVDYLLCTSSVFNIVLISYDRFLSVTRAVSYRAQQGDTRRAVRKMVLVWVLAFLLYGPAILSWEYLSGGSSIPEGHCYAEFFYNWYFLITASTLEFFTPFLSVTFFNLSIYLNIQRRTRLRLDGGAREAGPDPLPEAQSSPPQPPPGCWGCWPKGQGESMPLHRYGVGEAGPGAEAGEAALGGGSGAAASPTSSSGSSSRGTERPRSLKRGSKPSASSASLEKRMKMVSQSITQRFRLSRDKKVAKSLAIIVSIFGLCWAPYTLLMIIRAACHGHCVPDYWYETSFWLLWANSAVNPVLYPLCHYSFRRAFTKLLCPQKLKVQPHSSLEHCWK

| SMILES | Ki (H3 receptors) | Ki (histamine H1 receptor) | inhibition at 2 µg/mL (H3 receptors) | inhibition at 1 µg/mL (histamine H1 receptor) |
| --- | --- | --- | --- | --- |
| Clc1ccc(C(c2ccccn2)N2CCN(Cc3c[nH]cn3)CC2)cc1 (stereo not shown) | 73 nM | 5 nM | – | – |
| Clc1ccc(C(c2ccccc2)N2CCN(Cc3c[nH]cn3)CC2)cc1 (stereo not shown) | 101 nM | 1.7 nM | – | – |
| O=C(CC(c1ccccc1)c1ccccc1)N1CCN(Cc2c[nH]cn2)CC1 | – | – | 15% | – |
| c1ccc(C(CCN2CCN(Cc3c[nH]cn3)CC2)c2ccccc2)cc1 | – | 80 nM | 62% | – |
| O=C(COCCN1CCN(C(c2ccccc2)c2ccc(Cl)cc2)CC1)NCCCCc1c[nH]cn1 (stereo not shown) | 39 nM | 11 nM | – | – |
| Clc1ccc(C(c2ccccn2)N2CCN(CCCCCCCNCCCCc3c[nH]cn3)CC2)cc1 (stereo not shown) | 21 nM | 18.5 nM | – | – |
| Clc1ccc(C(c2ccccn2)N2CCN(CCCCc3c[nH]cn3)CC2)cc1 (stereo not shown) | 39 nM | 5 nM | – | – |
| Clc1ccc(C(=C2CCN(CCCCCc3c[nH]cn3)CC2)c2ccccn2)cc1 | 8 nM | 4.5 nM | – | – |
| O=C(C(c1ccc(Cl)cc1)c1ccc(Cl)cc1)N1CCC(CCc2c[nH]cn2)C1 (stereo not shown) | 9.5 nM | – | – | 2% |
| Clc1ccc(C(=C2CCN(CCCCCCc3c[nH]cn3)CC2)c2ccccn2)cc1 | 11 nM | 3 nM | – | – |
| c1ccc(C(c2ccccc2)C2CCN(CCCCCc3c[nH]cn3)CC2)cc1 | 19 nM | 28 nM | – | – |

Further compounds by falling Ki (H3 receptors), results first:

| Ki (H3 receptors) | Ki (histamine H1 receptor) | inhibition at 2 µg/mL (H3 receptors) | inhibition at 1 µg/mL (histamine H1 receptor) | SMILES |
| --- | --- | --- | --- | --- |
| 130 nM | 25 nM | – | – | Clc1ccc(C(CCN2CCN(Cc3c[nH]cn3)CC2)c2ccccn2)cc1 (stereo not shown) |
| 66 nM | 40 nM | – | – | Clc1ccc(C(c2ccccn2)N2CCN(CCCc3c[nH]cn3)CC2)cc1 (stereo not shown) |
| 66 nM | 50 nM | – | – | O=C(C(c1ccccc1)c1ccccc1)N1CCC(Cc2c[nH]cn2)CC1 |
| 32 nM | – | – | 14% | O=C(CC(c1ccc(Cl)cc1)c1ccccn1)N1CCN(CCCCc2c[nH]cn2)CC1 (stereo not shown) |
| 25 nM | – | – | 18% | Clc1ccc(C(CN2CCC(CCc3c[nH]cn3)C2)c2ccc(Cl)cc2)cc1 (stereo not shown) |
| 7 nM | 21 nM | – | – | Clc1ccc(C(CCN2CCN(CCCCc3c[nH]cn3)CC2)c2ccccn2)cc1 (stereo not shown) |
| 3 nM | 4.5 nM | – | – | Clc1ccc(C(=C2CCN(CCCCc3c[nH]cn3)CC2)c2ccccn2)cc1 |
| 0.3 nM | 19 nM | – | – | O=C(CC(c1ccc(Cl)cc1)c1ccccn1)N1CCC(Cc2c[nH]cn2)CC1 (stereo not shown) |
